In patent US20190337971A1, “PANTETHEINE DERIVATIVES FOR THE TREATMENT OF NEUROLOGIC DISORDERS” (Retrophin, Inc., priority 2016, published 2019):
Where two headings read alike, the source gives them in different places.

How the values were obtained:
PANK2−/− IMR32 cells = test: Coenzyme A assay in PANK2 silenced cells (LC-MS quantification of free CoA); type: cell-based, human; details: Homo sapiens, IMR-32; compound concentration 50 uM; fold increase in CoA levels relative to controls; treated twice, 24 h + 24 h
[1] = Stability of compounds in human hepatocytes; type: in vitro ADME; details: cryopreserved human hepatocytes in suspension, 37° C., 0-240 min
Procedure: Stability in hepatocytes for select compounds disclosed in the application was evaluated in two species (mouse and human) according to the following procedure. Compounds and positive control samples were dissolved in 100% DMSO at 5 mM. Cryopreserved hepatocytes were thawed and resuspended in Hepatocyte Basal Medium (HBM-Lonza CC-3199) supplemented with CC-4182 (complete hepatocyte culture medium). Test compounds were diluted into cell suspension (1 million cells/ml) from the stock solutions to have a test compound concentration of 5 μM (0.1% DMSO). Incubation was performed in 24-well plates, at 37° C. in a DUBNOFF water bath, under low shaking. Each compound was tested at 6 time points, in duplicates (0, 15, 30, 60, 120, and 240 min). At each time point, an aliquot of 120 μl was taken and transferred to a 96-well deep plate. The reaction was stopped with the addition of one volume of 100% acetonitrile plus 0.1% formic acid and the appropriate internal standard. Samples then were centrifuged at 1100×g for 30 min at +4° C. and supernatants were transferred to a new 96-deepwell plate. Samples were evaporated under N2 and reconstituted in H2O/ACN 0.1% formic Acid (98:2). Analysis was performed without a calibration curve (Acquity UPLC-Waters; Sciex API4000). Time 0 was obtained adding acetonitrile before addition of the test compound. Stability was determined based on analysis of disappearance of the compounds as a function of incubation time. Quantification of test compounds was measured as a peak area relative to an internal standard. The elimination constant, k, is calculated by plotting mean disappearance values on a semi-logarithmic scale and fitting with a best fit linear regression. The half-life (t1/2) expressed in hours was derived using Equation 1:
t1/2=ln 2/(−k). Equation 1: […]

[2] = Stability in human whole blood; type: in vitro ADME; details: 37° C., up to 60 min
Procedure: The stability of selected compounds in human whole blood was evaluated according to the following protocol. Compounds and positive control samples were dissolved in 100% DMSO at 3 mM (stock solution). To investigate the stability of the test compounds in whole blood, a 200 μM working solution (WS) in water has been prepared by adding 66.66 μl of each 3 mM stock solution to 933.34 μl of water (6.66% DMSO content). After pre-incubation of the whole blood at 37° C. for 5 min in an eppendorf, 10.5 μl of each working solution were spiked into 689.5 μl of heated blood. The obtained 3 μM solution in blood (0.1% DMSO content) was quickly stirred and 100 μl for each time point were transferred to an eppendorf. Each compound was tested in duplicate at five time points (10, 20, 30, 40 and 60 min). At each time point, the reaction was stopped by quenching the spiked blood (100 μl) with 400 μl of 100% acetonitrile containing 0.1% formic acid. Then samples were centrifuged at 15600 rpm for 15 min at +4° C. and 200 μl of supernatant were transferred to a 96-deepwell plate. Samples were evaporated under N2 and reconstituted in H2O/ACN 0.1% formic Acid (98/2 v/v) containing the appropriate internal standard. Analysis was performed without a calibration curve by using an Acquity-UPLC (Waters) coupled to a triple quadrupole mass spectrometer (SciexAPI4000). Time point 0 was obtained by adding 3 μL of each 200 μM working solution to 997 μL of the supernatant obtaining after centrifugation (15600 rpm for 15 min at +4° C.) of the blank matrix quenched with acetonitrile containing 0.1% formic acid.
Stability was determined based on analysis of disappearance of the compounds as a function of incubation time. Quantification of test compounds was measured as a peak area relative to an internal standard. The elimination constant k and half-life (t1/2) were determined as described above in Example 7.

[3] = Diastereoisomer A (upfield shift in 31P NMR), read-out: t1/2 (h) Human Hepatocytes Diastereoisomer A (converted)
[4] = Diastereoisomer B, read-out: t1/2 (h) Human Hepatocytes Diastereoisomer B (converted)
[5] = Diastereoisomer A (upfield shift in 31P NMR), read-out: t1/2 (h) Human Whole Blood Diastereoisomer A (converted)
[6] = Diastereoisomer B, read-out: t1/2 (h) Human Whole Blood Diastereoisomer B (converted)

SMILES | fold induction at 50 µM (PANK2−/− IMR32 cells) | half-life at 5 μM [1, 3] [h] | half-life at 5 μM [1, 4] [h] | half-life at 3 μM [2, 5] [h] | half-life at 3 μM [2, 6] [h]
CC(=O)SCCNC(=O)CCNC(=O)[C@@H]1OP(=O)(OCOC(=O)c2scnc2C)OCC1(C)C (stereo partly drawn) [R1006, (((4R)-4-((3-((2-(acetylthio)ethyl)amino)-3-oxopropyl)carbamoyl)-5,5-dimethyl-2-oxido-1,3,2-dioxaphosphinan-2-yl)oxy)methyl 4-methylthiazole-5-carboxylate] | 117 | 0.42 | 0.35 | 0.37 | < 0.16
CC(=O)SCCNC(=O)CCNC(=O)[C@@H]1OP(=O)(OCOC(=O)c2cc(C)nn2C)OCC1(C)C (stereo partly drawn) [R1007, (((4R)-4-((3-((2-(acetylthio)ethyl)amino)-3-oxopropyl)carbamoyl)-5,5-dimethyl-2-oxido-1,3,2-dioxaphosphinan-2-yl)oxy)methyl 1,3-dimethyl-1H-pyrazole-5-carboxylate] | 109 | 0.25 | 0.21 | 0.34 | < 0.16
